Reference: patent US12642270B2, “Substituted thiophene carboxamides, thiophene carboxylic acids and derivatives thereof” (Bayer Aktiengesellschaft, priority 2019, dated 2026)

Assay: Log P by HPLC on reversed phase columns (EEC directive 79/831 Annex V.A8)
Type: physicochemical
Summary of the method: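 Values come from retention times calibrated against alkan-2-ones (3–16 carbons) by linear interpolation, using reversed-phase LC-UV per EEC directive 79/831 Annex V.A8. Acetonitrile gradient 10–95% with 0.1% formic acid [a], 0.001 M ammonium acetate [b] or 0.1% phosphoric acid [c]; several values within one method separated by "+".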

[1] = LogP method [a], compounds of formula (I), Table 1.1

Compound	LogP (method marked [a])	LogP [1]
COC(=O)CNC(=O)c1sc(Cl)c(Cl)c1F [1.0343]	2.43^[a]	
CCOC(=O)CNC(=O)c1sc(Cl)c(Cl)c1F [1.0344]	2.83^[a]	
CCOC(=O)C(C)NC(=O)c1sc(Cl)c(Cl)c1F (centres unmarked) [1.0345]	3.34^[a]	
COC(=O)C(NC(=O)c1sc(Cl)c(Cl)c1F)C1CC1 (centres unmarked) [1.0346]	3.36^[a]	
CCOC(=O)C1(NC(=O)c2sc(Cl)c(Cl)c2F)CCC1 [1.0347]	3.70^[a]	
CCOC(=O)C(NC(=O)c1sc(Cl)c(Cl)c1F)C(C)C (centres unmarked) [1.0348]	4.37^[a]	
COC(=O)C(CC(F)F)NC(=O)c1sc(Cl)c(Cl)c1F (centres unmarked) [1.0349]	3.19^[a]	
CCOC(=O)C(CC(C)C)NC(=O)c1sc(Cl)c(Cl)c1F (centres unmarked) [1.0350]	4.63^[a]	
CCOC(=O)C(CCSC)NC(=O)c1sc(Cl)c(Cl)c1F (centres unmarked) [1.0351]	3.95^[a]	
CCOC(=O)C(Cc1ccccc1)NC(=O)c1sc(Cl)c(Cl)c1F (centres unmarked) [1.0352]	4.47^[a]	
N#CCNC(=O)c1sc(Br)c(Br)c1C(F)F [1.0353]	2.54^[a]	
COC(=O)CNC(=O)c1sc(Br)c(Br)c1C(F)F [1.0354]	2.66^[a]	
CCOC(=O)CNC(=O)c1sc(Br)c(Br)c1C(F)F [1.0355]	3.01^[a]	
COC(=O)C1(NC(=O)c2sc(Br)c(Br)c2C(F)F)CC1 [1.0356]	2.86^[a]	
CCOC(=O)C(C)NC(=O)c1sc(Br)c(Br)c1C(F)F (centres unmarked) [1.0357]	3.35^[a]	
COC(=O)C(NC(=O)c1sc(Br)c(Br)c1C(F)F)C1CC1 (centres unmarked) [1.0358]	3.37^[a]	
CCOC(=O)C1(NC(=O)c2sc(Br)c(Br)c2C(F)F)CCC1 [1.0359]	3.67^[a]	
CCOC(=O)C(NC(=O)c1sc(Br)c(Br)c1C(F)F)C(C)C (centres unmarked) [1.0360]	4.16^[a]	
COC(=O)C(CC(F)F)NC(=O)c1sc(Br)c(Br)c1C(F)F (centres unmarked) [1.0361]	3.28^[a]	
CCOC(=O)C(CC(C)C)NC(=O)c1sc(Br)c(Br)c1C(F)F (centres unmarked) [1.0362]	4.45^[a]	
CCOC(=O)C(CCSC)NC(=O)c1sc(Br)c(Br)c1C(F)F (centres unmarked) [1.0363]	3.89^[a]	
CCOC(=O)C(Cc1ccccc1)NC(=O)c1sc(Br)c(Br)c1C(F)F (centres unmarked) [1.0364]	4.34^[a]	
N#CCNC(=O)c1sc(Br)c(Br)c1C(F)(F)F [1.0365]	2.61^[a]	
COC(=O)CNC(=O)c1sc(Br)c(Br)c1C(F)(F)F [1.0366]	2.71^[a]	
CCOC(=O)CNC(=O)c1sc(Br)c(Br)c1C(F)(F)F [1.0367]	3.05^[a]	

Compound	LogP (method marked [a])	LogP [1]
COC(=O)C1(NC(=O)c2sc(Br)c(Br)c2C(F)(F)F)CC1 [1.0368]	2.93^[a]	
CCOC(=O)C(C)NC(=O)c1sc(Br)c(Br)c1C(F)(F)F (centres unmarked) [1.0369]	3.35^[a]	
CCOC(=O)C1(NC(=O)c2sc(Br)c(Br)c2C(F)(F)F)CC1 [1.0370]	3.26^[a]	
COC(=O)C(NC(=O)c1sc(Br)c(Br)c1C(F)(F)F)C1CC1 (centres unmarked) [1.0371]	3.37^[a]	
CCOC(=O)C1(NC(=O)c2sc(Br)c(Br)c2C(F)(F)F)CCC1 [1.0372]	3.67^[a]	
CCOC(=O)C(NC(=O)c1sc(Br)c(Br)c1C(F)(F)F)C(C)C (centres unmarked) [1.0373]	4.09^[a]	
COC(=O)C(CC(F)F)NC(=O)c1sc(Br)c(Br)c1C(F)(F)F (centres unmarked) [1.0374]	3.31^[a]	
CCOC(=O)C(CC(C)C)NC(=O)c1sc(Br)c(Br)c1C(F)(F)F (centres unmarked) [1.0375]	4.38^[a]	
CCOC(=O)C(CCSC)NC(=O)c1sc(Br)c(Br)c1C(F)(F)F (centres unmarked) [1.0376]	3.87^[a]	
CCOC(=O)C(Cc1ccccc1)NC(=O)c1sc(Br)c(Br)c1C(F)(F)F (centres unmarked) [1.0377]	4.31^[a]	
COC(=O)CNC(=O)c1cc(C#N)c(Cl)s1 [1.0378]	1.75^[a]	
CCOC(=O)CNC(=O)c1cc(C#N)c(Cl)s1 [1.0379]	2.08^[a]	
CCOC(=O)C1(NC(=O)c2cc(C#N)c(Cl)s2)CC1 [1.0380]	2.28^[a]	
COC(=O)C(NC(=O)c1cc(C#N)c(Cl)s1)C1CC1 (centres unmarked) [1.0381]	2.47^[a]	
CCOC(=O)C(NC(=O)c1cc(C#N)c(Cl)s1)C(C)C (centres unmarked) [1.0382]	3.20^[a]	
CCOC(=O)C(CCSC)NC(=O)c1cc(C#N)c(Cl)s1 (centres unmarked) [1.0383]	3.01^[a]	
CCOC(=O)C(Cc1ccccc1)NC(=O)c1cc(C#N)c(Cl)s1 (centres unmarked) [1.0384]	3.47^[a]	
COC(=O)CNC(=O)c1cc(Cl)c(C#N)s1 [1.0385]	1.77^[a]	
CCOC(=O)CNC(=O)c1cc(Cl)c(C#N)s1 [1.0386]	2.10^[a]	
CCOC(=O)C1(NC(=O)c2cc(Cl)c(C#N)s2)CC1 [1.0387]	2.32^[a]	
COC(=O)C(NC(=O)c1cc(Cl)c(C#N)s1)C1CC1 (centres unmarked) [1.0388]	2.50^[a]	
CCOC(=O)C(NC(=O)c1cc(Cl)c(C#N)s1)C(C)C (centres unmarked) [1.0389]	3.22^[a]	
CCOC(=O)C(CCSC)NC(=O)c1cc(Cl)c(C#N)s1 (centres unmarked) [1.0390]	3.03^[a]	
CCOC(=O)C(Cc1ccccc1)NC(=O)c1cc(Cl)c(C#N)s1 (centres unmarked) [1.0391]	3.48^[a]	
COC(=O)CNC(=O)c1sc(Cl)c(C#N)c1Cl [1.0392]	2.16^[a]	

Compound	LogP (method marked [a])	LogP [1]
CCOC(=O)CNC(=O)c1sc(Cl)c(C#N)c1Cl [1.0393]	2.54^[a]	
CCOC(=O)C1(NC(=O)c2sc(Cl)c(C#N)c2Cl)CC1 [1.0394]	2.69^[a]	
COC(=O)C(NC(=O)c1sc(Cl)c(C#N)c1Cl)C1CC1 (centres unmarked) [1.0395]	2.97^[a]	
CCOC(=O)C(NC(=O)c1sc(Cl)c(C#N)c1Cl)C(C)C (centres unmarked) [1.0396]	3.81^[a]	
CCOC(=O)C(CCSC)NC(=O)c1sc(Cl)c(C#N)c1Cl (centres unmarked) [1.0397]	3.52^[a]	
CCOC(=O)C(Cc1ccccc1)NC(=O)c1sc(Cl)c(C#N)c1Cl (centres unmarked) [1.0398]	4.05^[a]	
COC(=O)CNC(=O)c1cc(C#N)c(Br)s1 [1.0399]	1.79^[a]	
CCOC(=O)CNC(=O)c1cc(C#N)c(Br)s1 [1.0400]	2.11^[a]	
CCOC(=O)C1(NC(=O)c2cc(C#N)c(Br)s2)CC1 [1.0401]		2.30^[a]
COC(=O)C(NC(=O)c1cc(C#N)c(Br)s1)C1CC1 (centres unmarked) [1.0402]		2.50^[a]
CCOC(=O)C(NC(=O)c1cc(C#N)c(Br)s1)C(C)C (centres unmarked) [1.0403]		3.22^[a]
CCOC(=O)C(CCSC)NC(=O)c1cc(C#N)c(Br)s1 (centres unmarked) [1.0404]		3.03^[a]
CCOC(=O)C(Cc1ccccc1)NC(=O)c1cc(C#N)c(Br)s1 (centres unmarked) [1.0405]		3.48^[a]
COC(=O)CNC(=O)c1sc(Br)c(C#N)c1Br [1.0406]		2.22^[a]
CCOC(=O)CNC(=O)c1sc(Br)c(C#N)c1Br [1.0407]		2.61^[a]
CCOC(=O)C1(NC(=O)c2sc(Br)c(C#N)c2Br)CC1 [1.0408]		2.71^[a]
COC(=O)C(NC(=O)c1sc(Br)c(C#N)c1Br)C1CC1 (centres unmarked) [1.0409]		3.02^[a]
CCOC(=O)C(NC(=O)c1sc(Br)c(C#N)c1Br)C(C)C (centres unmarked) [1.0410]		3.84^[a]
CCOC(=O)C(CCSC)NC(=O)c1sc(Br)c(C#N)c1Br (centres unmarked) [1.0411]		3.55^[a]
CCOC(=O)C(Cc1ccccc1)NC(=O)c1sc(Br)c(C#N)c1Br (centres unmarked) [1.0412]		4.08^[a]
COC(=O)C(C1CC1)N(O)C(=O)c1sc(Br)c(Br)c1F (centres unmarked) [1.0413]		2.77^[a]
CCOC(=O)C1(NC(=O)c2sc(Cl)c(Cl)c2C(F)F)CC1 [1.0414]		3.17^[a]
COC(=O)CNC(=O)c1sc(Cl)c(Cl)c1C(F)F [1.0415]		2.61^[a]
CCOC(=O)CNC(=O)c1sc(Cl)c(Cl)c1C(F)F [1.0416]		2.97^[a]
COC(=O)C(NC(=O)c1sc(Cl)c(Cl)c1C(F)F)C1CC1 (centres unmarked) [1.0417]		3.33^[a]

Compound	LogP (method marked [a])	LogP [1]
CCOC(=O)C(NC(=O)c1sc(Cl)c(Cl)c1C(F)F)C(C)C (centres unmarked) [1.0418]		4.13^[a]
CCOC(=O)C(CCSC)NC(=O)c1sc(Cl)c(Cl)c1C(F)F (centres unmarked) [1.0419]		3.86^[a]
CCOC(=O)C(Cc1ccccc1)NC(=O)c1sc(Cl)c(Cl)c1C(F)F (centres unmarked) [1.0420]		4.33^[a]
N#CCNC(=O)c1sc(Br)c(Cl)c1F [1.0421]		2.33^[a]
COC(=O)CNC(=O)c1sc(Br)c(Cl)c1F [1.0422]		2.47^[a]
CCOC(=O)CNC(=O)c1sc(Br)c(Cl)c1F [1.0423]		2.92^[a]
COC(=O)C1(NC(=O)c2sc(Br)c(Cl)c2F)CC1 [1.0424]		2.72^[a]
CCOC(=O)C(C)NC(=O)c1sc(Br)c(Cl)c1F (centres unmarked) [1.0425]		3.38^[a]
CCOC(=O)C1(NC(=O)c2sc(Br)c(Cl)c2F)CC1 [1.0426]		3.09^[a]
COC(=O)C(NC(=O)c1sc(Br)c(Cl)c1F)C1CC1 (centres unmarked) [1.0427]		3.38^[a]
CCOC(=O)C1(NC(=O)c2sc(Br)c(Cl)c2F)CCC1 [1.0428]		3.73^[a]
CCOC(=O)C(NC(=O)c1sc(Br)c(Cl)c1F)C(C)C (centres unmarked) [1.0429]		4.38^[a]
COC(=O)C(CC(F)F)NC(=O)c1sc(Br)c(Cl)c1F (centres unmarked) [1.0430]		3.21^[a]
CCOC(=O)C(CC(C)C)NC(=O)c1sc(Br)c(Cl)c1F (centres unmarked) [1.0431]		4.64^[a]
CCOC(=O)C(CCSC)NC(=O)c1sc(Br)c(Cl)c1F (centres unmarked) [1.0432]		3.96^[a]
CCOC(=O)C(Cc1ccccc1)NC(=O)c1sc(Br)c(Cl)c1F (centres unmarked) [1.0433]		4.48^[a]
COC(=O)C(CCSC)NC(=O)c1sc(Br)c(Br)c1F (centres unmarked) [1.0434]		3.57^[a]
CCOC(=O)C(CC(C)C)NC(=O)c1cc(F)c(Br)s1 (centres unmarked) [1.0435]		3.80^[a]
CCOC(=O)C(CC(C)C)NC(=O)c1cc(Br)c(Cl)s1 (centres unmarked) [1.0436]		4.23^[a]
CCOC(=O)C(NC(=O)c1cc(Br)c(Cl)s1)C(C)C (centres unmarked) [1.0437]		3.87^[a]
COC(=O)C(CC(F)F)NC(=O)c1cc(Br)c(Cl)s1 (centres unmarked) [1.0438]		3.07^[a]
CCOC(=O)C1(NC(=O)c2cc(Br)c(Cl)s2)CCC1 [1.0439]		3.44^[a]
COC(=O)C(CC(F)F)NC(=O)c1sc(Br)c(Br)c1F (centres unmarked) [1.0440]		3.23^[a]
